Experimental data as given in US7892830B2, “Clonal culture of human pluripotent stem cells” (Wisconsin Alumni Research Foundation, priority 2007, dated 2011).
Counter-ions that a name gives are not always drawn.

Key:
[1] = tested on: H1 human ES cells; experiment: 6-well cloning efficiency assay in TeSR1 medium on Matrigel, colonies counted manually; type: cell-based; conditions: for confirmation in 6-well assay as active in increasing cloning efficiency: 6-well plates, varying concentrations; for max. CE (%): cloning efficiency = CFU per number of plated single cells
Excerpt: As described above, a difficulty in growing pluripotent cells, like ES cells, in culture is their low cloning efficiency. As used herein, “cloning efficiency” means a number of cells individualized by trypsin that form new ES cell colonies divided by the number of individual cells plated in a well of a culture dish. In our prior experience with growing human ES cells in defined and animal-free conditions on a matrix (e.g., Matrigel®), cloning efficiency was very low (i.e., less than 0.1%). This contrasts with prior experience using culture systems based on medium conditioned by exposure to fibroblasts, where the cloning efficiency, while still low (i.e., less than 2%), was high enough to initiate clonal ES cell colonies. As disclosed herein, the addition of a small molecule to the culture medium in which human ES cells are grown permits the ES cell cultures to be clonally cultivated in a manner that is extremely difficult without the addition of the small molecule. Several small molecules are exemplified herein for this purpose.
For these assays, 10,000 cells per well were plated on Matrigel®—coated plates and then treated every other day for a total of four days. with the small molecules as described above. To evaluate the effect of the tested small molecules on cloning efficiency, we manually counted colonies after 10 days.
We determined cloning efficiency (CE; the number of colony forming units (CFU) per number of plated single cells, trypsin/EDTA treated). HA-100 was the first molecule identified in the small molecule screen, following which other structurally similar small molecules were also tested for cloning efficiency.

[2] = tested on: H1 human ES cells; experiment: Fluorometric high-throughput ALP (DiFMUP) screen for colony formation, 96-well; type: cell-based; conditions: 10 μM, 500 cells per well, TeSR1, a typical hit read above 200,000
Experimental: The screen was conducted using a fluorescent, high-throughput assay to screen small molecules for their ability to enhance cloning efficiency. A soluble, non-fluorescent substrate (6,8-difluoro-4-methylumbelliferyl phosphate, DiFMUP) was converted to a fluorescent product by an enzyme specific for undifferentiated, human ES cells called alkaline phosphatase (ALP).
In wells that had colonies larger than 2,000 cells, and which formed 12 days after seeding 500 individualized human ES cells in a 96-well plate, increased fluorescence from DiFMUP hydrolyzed by ALP indicated any well that contained a compound that enabled colony formation. […] Thus, this assay tested both for clonal propagation and for maintenance of undifferentiated status.
The screen used a small molecule library made up of characterized compounds with known bioactivity that was purchased from Sigma-Aldrich (St. Louis, Mo.). Members of the library were dissolved in DMSO to a concentration of 1 mM. All other chemicals used were purchased from Sigma, unless otherwise indicated in the text. H1 human ES cells (WiCell Research Institute; Madison, Wis.) were grown in the defined TeSR™1 medium, which was prepared as described in Ludwig et al., supra.
The assay was performed at the Keck-UWCCC Small Molecule Screening Facility (University of Wisconsin—Madison; Madison, Wis.) in 96-well microplates (Nunclon/Nunc; Roskilde, Denmark) using a Beckman Biomek® FX Laboratory Workstation and a Perkin Elmer VictorIII® Plate Reader. The microplates were coated with Matrigel® (#354230, growth factor reduced; BD Bioscience; San Jose, Calif.) at 0.3 mg/ml in DMEM/F12 (Invitrogen; Carlsbad, Calif.) for 1 hour at room temperature.
H1 human ES cells were grown in 6-well Nunclon® dishes to day 5, and then treated with 1 ml Trypsin/EDTA (Invitrogen) containing 1% chick serum for 5 minutes at 37° C. Trypsin was quenched with 20% FBS in DMEM/F12, and the cells were collected by centrifugation for 1.5 minutes at 200 RCF. After aspiration of the medium, cells were re-suspended in TeSR™1 medium to a density of 5,000 cells per ml. Of this cell suspension, 100 μL was dispensed into each well, and 1 μL of a […] DMSO solution of inhibitor was added and mixed by pipetting, resulting in a final inhibitor concentration of 10 μM. The plates were incubated at 5% CO2 at 37° C. for 2 days. Then, the medium was exchanged with TeSR™1 medium not having the cloning molecule. […]
To detect colony formation, we used a fluorometric, ALP assay (EnzChek®; Invitrogen). […] In wells that had colonies, increased fluorescence indicated any well containing a compound that led to colony formation. […] Plates were read by a multi-plate reader (excitation 355 nm, emission 455 nm, at 0.1 ms emission intervals).

[3] = tested on: H1 human ES cells; experiment: Example 2 colony formation with ROCK inhibitors, ALP assay and examination by eye; type: cell-based; conditions: for concentration showing the most colony formation with the ALP assay: tested 5 nM to 20 μM, TeSR1, Matrigel
Experimental: The experiments described in Example 1 were repeated with H-1152 (EMD Chemicals, Inc./Calbiochem; San Diego, Calif.) and Y-27632 (EMD Chemicals, Inc./Calbiochem). Briefly, H-1152 or Y-27632 was dissolved in DMSO to a concentration of 20 mM. H1 human ES cells were grown on Matrigel®—coated plates in TeSR™1 medium at a density of 100,000 cells per ml. H-1152 and Y-27632 were added to wells on their own plates at a final concentration of 20 μM, 15 μM, 10 μM or 5 μM in DMSO. DMSO and HA-100 (10 μM) were used as the negative and positive controls, respectively. The plates were treated every other day for a total of four days. Colony formation was detected with the ALP assay described above.
In a second experiment, H-1152 and Y-27632 were added to wells on their own plates at a final concentration of 5 μM, 500 nM, 50 nM or 5 nM in DMSO. DMSO and HA-100 (10 μM) were used as the negative and positive controls, respectively. The plates were treated as described above.

[4] = tested on: PKA; conditions: cited from earlier work
[5] = tested on: PKC; conditions: cited from earlier work
[6] = tested on: PKG; conditions: cited from earlier work
[7] = tested on: ROCK1/ROCK2; conditions: read-out: IC50 ROCK1/ROCK2; competing with ATP; cited from earlier work
[8] = tested on: human ES cells; experiment: Cloning efficiency in conditioned medium (CM); type: cell-based; conditions: CM substituted for TeSR1, otherwise identical treatment
Experimental: (§1) We have also tested these small molecules for effects on human ES cell cloning on other medium. We tested the effect on conditioned medium (CM) substituting TeSR™1 medium with CM and otherwise identical treatment. The cloning efficiency of the medium increased with addition of HA-100. In addition, we performed a similar test with unconditioned medium to which 100 ng/μl of bFGF had been added.

[9] = tested on: human ES cells; experiment: Cloning efficiency in unconditioned medium with added bFGF; type: cell-based; conditions: unconditioned medium with 100 ng/μl bFGF, compared to control cultures lacking HA-100
Experimental: as §1

[10] = tested on: Oct4; experiment: Oct4 immunofluorescence of cloned colonies; type: cell-based, human; conditions: colonies from HA-100 treatment
Excerpt: We also tested the resulting colonies from HA-100 treatment for the presence of Oct4, an intracellular marker for pluripotent ES cells.

Question: With `CC(C)CCC[C@@H](C)[C@H]1CC[C@H]2C3=CC[C@H]4C[C@@H](O)CC[C@]4(C)[C@H]3CC[C@]12C` [lathosterol] as the compound, how does the “confirmation in 6-well assay as active in increasing cloning efficiency” value (“confirmation … in increasing cloning efficiency” for short) [1] read?
Answer: only HA-100 could be confirmed

Question: What about the “result of small molecule screen (colony formation, ALP fluorescence)” value (shortened to “result of small molecule screen”) [2] of the same compound?
Answer: hits

Question: For `Cc1cncc2cccc(S(=O)(=O)N3CCCNC[C@@H]3C)c12` [H-1152, (S)-(+)-2-methyl-1-[(4-methyl-5-isoquinolinyl)sulfonyl]homopiperazine dihydrochloride], which “colony formation by eye compared with HA-100 (at 10 μM)” value ([3]; concentrations above 500 nM) is on record?
Answer: equal or better than HA-100

Question: What about the “working concentration compared with HA-100” value ([3]; facilitating clonal growth) of the same compound?
Answer: ten times lower

Question: What about the “concentration showing the most colony formation with the ALP assay” value [3] of the same compound?
Answer: 500 nM

Question: Which results are given for `CC1CNCCN1S(=O)(=O)c1cccc2cnccc12` (centres unmarked) [H-7, 1-(5-isoquinolinesulfonyl)-2-methylpiperazine]?
Answer: max. CE (%) ([1]; TeSR1, Matrigel): <1%; IC50 [4]: 3 µM; IC50 [5]: 6 µM; IC50 [6]: 5.8 µM

Question: Which “colony formation by eye compared with HA-100 (at 10 μM)” value ([3]; concentrations above 5 μM) does the source give for `C[C@@H](N)[C@H]1CC[C@H](C(=O)Nc2ccncc2)CC1` [Y-27632, (+)-(R)-trans-4-(1-aminoethyl)-N-(4-pyridyl)cyclohexanecarboxamide dihydrochloride] here?
Answer: equal or better than HA-100

Question: What about the “concentration showing the most colony formation with the ALP assay” value [3] of the same compound?
Answer: 5000 nM

Question: What about the IC50 [7] of the same compound?
Answer: 0.8 µM

Question: With quipazine dimaleate as the compound, how does the “confirmation … in increasing cloning efficiency” value [1] read?
Answer: only HA-100 could be confirmed

Question: And the “result of small molecule screen” value [2]?
Answer: hits

Question: What does the source list for `O=S(=O)(NCCNC/C=C/c1ccc(Br)cc1)c1cccc2cnccc12` [H-89, N-[2-p-bromo-cinnamylamino)ethyl]-5-isoquinolinesulfonamide dihydrochloride]?
Answer: max. CE (%) ([1]; TeSR1, Matrigel): 2.5%; IC50 [5]: 31.7 µM; IC50 [6]: 0.48 µM

Question: Which “CFU+ (concentration range with colony forming units)” value ([1]; 6-well plates, 10,000 cells per well, TeSR1, Matrigel, colonies counted after 10 days) does the source give for `Cl.N=C(N)NCCNS(=O)(=O)c1cccc2cnccc12` [HA-1004, N-(2-guanidinoethyl)-5-isoquinolinesulfonamide hydrochloride] here?
Answer: >50.0 µM

Question: What about the “max. CE (%)” value ([1]; TeSR1, Matrigel) of the same compound?
Answer: <1%

Question: What about the IC50 [4] of the same compound?
Answer: 2.3 µM

Question: What about the IC50 [5] of the same compound?
Answer: 40 µM

Question: What about the IC50 [6] of the same compound?
Answer: 1.3 µM

Question: For `CC1(C)OC(=O)C=CC2(C)C1CC(O)C1(C)C2CCC2(C)C(c3ccoc3)OC(=O)C3OC321` (centres unmarked) [obacunol], which “confirmation … in increasing cloning efficiency” value [1] is on record?
Answer: only HA-100 could be confirmed

Question: And the “result of small molecule screen” value [2]?
Answer: hits

Question: For `CC1CN(S(=O)(=O)c2cccc3cnccc23)CCN1` (centres unmarked) [iso H-7, 1-(5-isoquinolinesulfonyl)-3-methylpiperazine], which “max. CE (%)” value ([1]; TeSR1, Matrigel) is on record?
Answer: <1%

Question: And the IC50 [4]?
Answer: > 3 µM

Question: What about the IC50 [5] of the same compound?
Answer: > 6 µM

Question: What about the IC50 [6] of the same compound?
Answer: > 5.8 µM

Question: For `Cl.Cl.O=S(=O)(c1cccc2cnccc12)N1CCCNCC1` [HA-1077, 1-(5-isoquinolinesulfonyl)homopiperazine dihydrochloride], which “effect on cloning efficiency of human ES cells” value ([1]; related small molecules tested after HA-100) is on record?
Answer: increased cloning efficiency

Question: For `O=S(=O)(c1cccc2cnccc12)N1CCNCC1` [HA-100, 1-(5-isoquinolinesulfonyl)piperazine hydrochloride], which “confirmation … in increasing cloning efficiency” value [1] is on record?
Answer: confirmed

Question: And the “max. CE (%)” value ([1]; TeSR1, Matrigel)?
Answer: 2%

Question: And the “result of small molecule screen” value [2]?
Answer: hits

Question: What about the “effect on cloning efficiency in conditioned medium” value [8] of the same compound?
Answer: increased

Question: What about the “effect on cloning efficiency in unconditioned medium” value [9] of the same compound?
Answer: increased cloning efficiency

Question: And the “Oct4 expression in cloned colonies (immunofluorescence)” value [10]?
Answer: maintenance of Oct4 expression

Question: What about the IC50 [4] of the same compound?
Answer: 8 µM

Question: And the IC50 [5]?
Answer: 12 µM

Question: What about the IC50 [6] of the same compound?
Answer: 4 µM
